Experiments:
[1] = Induction of apoptosis in mouse BaF3 cells harboring CCDC6-RET G810C mutant assessed as late apoptotic cells at 100 nM incubated for 48 hrs by Annexin V-PE staining based flow cytometry analysis (Rvb =4.30%); type: functional
[2] = biological target: Ephrin type-A receptor 2 (Homo sapiens, UniProt P29317); assay: Inhibition of EPHA2 (unknown origin)
[3] = Induction of apoptosis in mouse BaF3 cells harboring CCDC6-RET G810R mutant assessed as viable cells at 300 nM incubated for 48 hrs by Annexin V-PE staining based flow cytometry analysis (Rvb =86.40%); type: functional; details: read-out: Activity
[4] = Induction of apoptosis in mouse BaF3 cells harboring CCDC6-RET G810C mutant assessed as late apoptotic cells at 10 nM incubated for 48 hrs by Annexin V-PE staining based flow cytometry analysis (Rvb =4.30%); type: functional
[5] = test system: BaF3; assay: Inhibition of SHC phosphorylation in mouse BaF3 cells harboring CCDC6-RET G810R mutant incubated for 12 hrs by Western blotting analysis; type: cell-based; details: dose <= 300.0 nM
[6] = Induction of apoptosis in mouse BaF3 cells harboring CCDC6-RET G810R mutant assessed as late apoptotic cells at 30 nM incubated for 48 hrs by Annexin V-PE staining based flow cytometry analysis (Rvb =3.21%); type: functional
[7] = Induction of apoptosis in mouse BaF3 cells harboring CCDC6-RET G810C mutant assessed as late apoptotic cells at 300 nM incubated for 48 hrs by Annexin V-PE staining based flow cytometry analysis (Rvb =4.30%); type: functional
[8] = Induction of apoptosis in mouse BaF3 cells harboring CCDC6-RET G810C mutant assessed as early apoptotic cells at 10 nM incubated for 48 hrs by Annexin V-PE staining based flow cytometry analysis (Rvb =8.74%); type: functional
[9] = Induction of cell cycle arrest in mouse BaF3 cells harboring CCDC6-RET G810C mutant assessed as accumulation of cells at G0/G1 phase at 100 nM incubated for 24 hrs by propidium iodide staining based analysis (reference value: 52.11%); type: functional
[10] = test system: BaF3; assay: Inhibition of SHC phosphorylation in mouse BaF3 cells harboring CCDC6-RET incubated for 12 hrs by Western blotting analysis; type: cell-based; details: dose <= 300.0 nM
[11] = test system: BaF3; assay: Antiproliferative activity against mouse BaF3 cells harbouring CCDC6-RET assessed as inhibition of cell proliferation incubated for 72 hrs by CCK-8 assay; type: functional, cell-based; details: BaF3, 72 h
[12] = Induction of apoptosis in mouse BaF3 cells harboring CCDC6-RET G810R mutant assessed as late apoptotic cells at 300 nM incubated for 48 hrs by Annexin V-PE staining based flow cytometry analysis (Rvb =3.21%); type: functional
[13] = Induction of apoptosis in mouse BaF3 cells harboring CCDC6-RET assessed as necrotic cells at 300 nM incubated for 48 hrs by Annexin V-PE staining based flow cytometry analysis (Rvb =0.19%); type: functional
[14] = Induction of cell cycle arrest in mouse BaF3 cells harboring CCDC6-RET assessed as accumulation of cells at G2/M phase at 300 nM incubated for 24 hrs by propidium iodide staining based analysis (reference value: 34.11%); type: functional
[15] = Induction of apoptosis in mouse BaF3 cells harboring CCDC6-RET assessed as early apoptotic cells at 300 nM incubated for 48 hrs by Annexin V-PE staining based flow cytometry analysis (Rvb =6.21%); type: functional
[16] = Induction of cell cycle arrest in mouse BaF3 cells harboring CCDC6-RET G810C mutant assessed as accumulation of cells at S phase at 30 nM incubated for 24 hrs by propidium iodide staining based analysis (reference value: 12.47%); type: functional
[17] = biological target: BDNF/NT-3 growth factors receptor (Homo sapiens, UniProt Q16620); assay: Inhibition of TRKB (unknown origin)
Chain of BDNF/NT-3 growth factors receptor (Q16620 whole entry): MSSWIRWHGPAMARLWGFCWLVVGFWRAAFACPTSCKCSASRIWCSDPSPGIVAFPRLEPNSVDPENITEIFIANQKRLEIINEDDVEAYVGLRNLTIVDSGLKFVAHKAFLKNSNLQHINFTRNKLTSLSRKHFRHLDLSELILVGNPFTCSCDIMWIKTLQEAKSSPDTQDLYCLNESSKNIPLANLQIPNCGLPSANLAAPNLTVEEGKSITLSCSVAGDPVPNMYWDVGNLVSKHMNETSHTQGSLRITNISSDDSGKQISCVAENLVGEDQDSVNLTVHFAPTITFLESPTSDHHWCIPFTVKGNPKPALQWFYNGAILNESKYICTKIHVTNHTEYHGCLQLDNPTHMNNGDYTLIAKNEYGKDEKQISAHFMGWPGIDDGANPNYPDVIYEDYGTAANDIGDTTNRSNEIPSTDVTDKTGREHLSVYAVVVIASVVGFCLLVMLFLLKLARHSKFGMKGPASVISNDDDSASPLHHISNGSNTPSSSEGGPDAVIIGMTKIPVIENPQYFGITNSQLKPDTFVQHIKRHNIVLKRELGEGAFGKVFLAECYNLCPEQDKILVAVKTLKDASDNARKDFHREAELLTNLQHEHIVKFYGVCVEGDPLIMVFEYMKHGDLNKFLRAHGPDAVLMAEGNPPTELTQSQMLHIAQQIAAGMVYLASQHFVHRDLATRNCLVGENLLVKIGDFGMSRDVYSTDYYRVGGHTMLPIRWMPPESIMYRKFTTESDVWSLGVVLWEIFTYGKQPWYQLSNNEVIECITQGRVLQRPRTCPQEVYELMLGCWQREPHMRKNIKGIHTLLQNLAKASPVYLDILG

[18] = Induction of cell cycle arrest in mouse BaF3 cells harboring CCDC6-RET assessed as accumulation of cells at G0/G1 phase at 10 nM incubated for 24 hrs by propidium iodide staining based analysis (reference value: 52.51%); type: functional
[19] = Induction of cell cycle arrest in mouse BaF3 cells harboring CCDC6-RET G810C mutant assessed as accumulation of cells at G2/M phase at 10 nM incubated for 24 hrs by propidium iodide staining based analysis (reference value: 34.75%); type: functional
[20] = biological target: T1, Ephrin type-B receptor 4 (Homo sapiens, UniProt P54760); assay: Inhibition of EPHB4 (unknown origin)
T1 sequence (P54760 whole entry): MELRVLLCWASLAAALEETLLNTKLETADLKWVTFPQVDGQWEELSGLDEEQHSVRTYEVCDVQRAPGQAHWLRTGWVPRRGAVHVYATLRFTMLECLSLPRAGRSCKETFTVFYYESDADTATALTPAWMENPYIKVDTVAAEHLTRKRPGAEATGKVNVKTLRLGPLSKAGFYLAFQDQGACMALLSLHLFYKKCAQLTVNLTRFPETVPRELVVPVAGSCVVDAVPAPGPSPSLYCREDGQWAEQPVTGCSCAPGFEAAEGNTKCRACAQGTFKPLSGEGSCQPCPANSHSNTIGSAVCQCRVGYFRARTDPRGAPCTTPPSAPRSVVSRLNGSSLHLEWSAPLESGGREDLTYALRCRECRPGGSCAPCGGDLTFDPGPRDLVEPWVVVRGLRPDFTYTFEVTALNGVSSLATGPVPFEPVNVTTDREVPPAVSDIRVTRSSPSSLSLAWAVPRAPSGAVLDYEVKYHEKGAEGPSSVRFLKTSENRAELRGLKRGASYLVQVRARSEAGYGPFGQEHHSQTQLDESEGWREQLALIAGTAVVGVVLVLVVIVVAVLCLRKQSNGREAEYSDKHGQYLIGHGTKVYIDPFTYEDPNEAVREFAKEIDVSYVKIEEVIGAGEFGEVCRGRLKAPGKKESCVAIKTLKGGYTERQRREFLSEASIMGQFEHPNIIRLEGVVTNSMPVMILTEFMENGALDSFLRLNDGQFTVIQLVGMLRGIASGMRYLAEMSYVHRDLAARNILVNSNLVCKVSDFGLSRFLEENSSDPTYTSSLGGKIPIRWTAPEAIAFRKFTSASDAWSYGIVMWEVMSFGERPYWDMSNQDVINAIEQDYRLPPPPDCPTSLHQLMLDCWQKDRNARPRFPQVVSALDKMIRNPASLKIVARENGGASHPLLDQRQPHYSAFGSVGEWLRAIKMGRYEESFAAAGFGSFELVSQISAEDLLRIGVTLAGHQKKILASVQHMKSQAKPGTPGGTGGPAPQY

[21] = Induction of apoptosis in mouse BaF3 cells harboring CCDC6-RET G810C mutant assessed as early apoptotic cells at 300 nM incubated for 48 hrs by Annexin V-PE staining based flow cytometry analysis (Rvb =8.74%); type: functional
[22] = Induction of cell cycle arrest in mouse BaF3 cells harboring CCDC6-RET assessed as accumulation of cells at G2/M phase at 30 nM incubated for 24 hrs by propidium iodide staining based analysis (reference value: 34.11%); type: functional
[23] = biological target: Proto-oncogene tyrosine-protein kinase receptor Ret (Homo sapiens, UniProt P07949); assay: Inhibition of RET (unknown origin)
Chain of Proto-oncogene tyrosine-protein kinase receptor Ret (P07949 whole entry): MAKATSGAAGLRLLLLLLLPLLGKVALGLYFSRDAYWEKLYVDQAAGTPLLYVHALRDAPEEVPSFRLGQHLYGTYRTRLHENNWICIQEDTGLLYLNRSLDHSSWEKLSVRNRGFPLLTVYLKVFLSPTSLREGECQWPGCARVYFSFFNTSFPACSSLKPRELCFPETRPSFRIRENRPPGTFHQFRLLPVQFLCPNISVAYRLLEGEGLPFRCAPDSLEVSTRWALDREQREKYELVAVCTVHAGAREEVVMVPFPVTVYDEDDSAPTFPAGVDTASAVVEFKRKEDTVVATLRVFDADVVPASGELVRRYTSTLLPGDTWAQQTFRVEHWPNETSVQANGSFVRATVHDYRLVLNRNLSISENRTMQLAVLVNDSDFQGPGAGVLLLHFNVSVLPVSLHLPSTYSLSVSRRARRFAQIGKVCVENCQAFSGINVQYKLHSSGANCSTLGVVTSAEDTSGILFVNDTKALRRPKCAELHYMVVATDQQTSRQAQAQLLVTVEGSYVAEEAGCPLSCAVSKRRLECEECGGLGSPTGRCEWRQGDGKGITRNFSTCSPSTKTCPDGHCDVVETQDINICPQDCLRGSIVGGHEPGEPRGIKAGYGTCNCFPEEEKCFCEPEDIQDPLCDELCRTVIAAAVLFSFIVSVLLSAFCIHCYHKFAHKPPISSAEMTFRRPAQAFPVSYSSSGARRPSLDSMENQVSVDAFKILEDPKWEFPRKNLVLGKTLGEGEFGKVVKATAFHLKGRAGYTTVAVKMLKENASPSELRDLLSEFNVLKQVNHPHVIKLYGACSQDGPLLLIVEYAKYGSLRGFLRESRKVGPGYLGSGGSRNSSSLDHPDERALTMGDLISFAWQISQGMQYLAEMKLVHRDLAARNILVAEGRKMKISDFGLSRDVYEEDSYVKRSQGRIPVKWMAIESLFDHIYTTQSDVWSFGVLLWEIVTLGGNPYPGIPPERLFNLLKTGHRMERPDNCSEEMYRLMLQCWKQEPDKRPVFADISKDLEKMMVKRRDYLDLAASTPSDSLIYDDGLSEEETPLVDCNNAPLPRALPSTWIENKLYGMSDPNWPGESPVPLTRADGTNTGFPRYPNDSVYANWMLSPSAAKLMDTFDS

Chain of Ephrin type-A receptor 2 (P29317 whole entry): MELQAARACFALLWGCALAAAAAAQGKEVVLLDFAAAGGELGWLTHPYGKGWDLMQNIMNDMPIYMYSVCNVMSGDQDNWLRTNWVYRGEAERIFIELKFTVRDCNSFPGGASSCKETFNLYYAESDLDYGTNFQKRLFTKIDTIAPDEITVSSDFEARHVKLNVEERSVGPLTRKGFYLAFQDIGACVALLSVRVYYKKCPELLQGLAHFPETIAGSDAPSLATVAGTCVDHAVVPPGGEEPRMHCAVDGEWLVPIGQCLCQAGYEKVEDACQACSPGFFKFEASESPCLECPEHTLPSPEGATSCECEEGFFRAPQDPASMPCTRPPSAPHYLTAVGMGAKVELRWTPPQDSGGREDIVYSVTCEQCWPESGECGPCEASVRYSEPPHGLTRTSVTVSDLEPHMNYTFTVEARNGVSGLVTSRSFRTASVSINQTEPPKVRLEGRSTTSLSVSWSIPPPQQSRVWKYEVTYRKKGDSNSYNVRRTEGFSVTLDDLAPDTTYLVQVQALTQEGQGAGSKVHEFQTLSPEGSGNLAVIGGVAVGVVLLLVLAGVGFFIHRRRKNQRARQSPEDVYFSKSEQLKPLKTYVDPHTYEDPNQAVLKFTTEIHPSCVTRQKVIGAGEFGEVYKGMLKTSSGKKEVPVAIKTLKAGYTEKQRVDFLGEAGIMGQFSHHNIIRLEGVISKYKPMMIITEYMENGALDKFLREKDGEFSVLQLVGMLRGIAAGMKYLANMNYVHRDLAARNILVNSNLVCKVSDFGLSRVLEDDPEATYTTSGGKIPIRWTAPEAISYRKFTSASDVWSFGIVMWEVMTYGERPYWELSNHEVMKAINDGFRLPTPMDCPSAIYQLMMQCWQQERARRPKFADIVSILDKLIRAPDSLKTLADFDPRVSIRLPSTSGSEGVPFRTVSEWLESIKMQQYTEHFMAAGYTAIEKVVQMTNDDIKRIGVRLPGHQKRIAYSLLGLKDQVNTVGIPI

IC50 [2]: 63.4 nM
IC50 [11]: 13 nM
IC50 [17]: 86.7 nM
IC50 [20]: 36.4 nM
IC50 [23]: 4.2 nM
SMILES: COc1cncc(-c2cn[nH]c2/C=C/c2ccc(NC(=O)Nc3cc(C(C)(C)C(F)(F)F)on3)c(Cl)c2)c1
Activity [1]: 1.87%
viability at 0.3 µM [3]: 22.5%
Activity [4]: 3.24%
inhibition [5]: Dose-dependent-effect
Activity [6]: 2.48%
Activity [7]: 0.31%
Activity [8]: 9.11%
Activity [9]: 66.6%
inhibition [10]: Dose-dependent-effect
Activity [12]: 9.06%
Activity [13]: 0.04%
Activity [14]: 12.51%
Activity [15]: 54.65%
Activity [16]: 11.11%
Activity [18]: 54%
Activity [19]: 33.74%
Activity [21]: 91.44%
Activity [22]: 30.23%
